Laboratory results: ChEMBL document CHEMBL1153705, “Evaluation and optimization of antifibrotic activity of cinnamoyl anthranilates” (Bioorg Med Chem Lett, 2009)
Activity calls are given as the source filed them. The calls are words filed in the database; no cut-off is given here.

Experiments:
[1] = (§1) Antifibrotic activity in rat 1097 cells assessed as inhibition of TGF-beta-stimulated [3H]proline incorporation in to collagen at 100 uM; format: functional
[2] = Antifibrotic activity in rat 1097 cells assessed as inhibition of TGF-beta-stimulated [3H]proline incorporation in to collagen at 30 uM; format: functional
[3] = Toxicity against rat 1097 cells at 100 uM; format: cell-based
[4] = Toxicity against rat 1097 cells at 30 uM; format: cell-based
1097 [5] = assay: Antifibrotic activity in rat 1097 cells assessed as necrotic cells at 30 uM; format: functional, cell-based
1097 [6] = assay: Antifibrotic activity in rat 1097 cells assessed as necrotic cells at 100 uM; format: functional, cell-based
Rattus norvegicus [7] = species: Rattus norvegicus; assay: as §1; format: functional
Rattus norvegicus [8] = species: Rattus norvegicus; assay: Antifibrotic activity in rat 1097 cells assessed as damaged cells at 100 uM; format: functional, cell-based
Rattus norvegicus [9] = assay: Reduction in albuminuria in STZ-induced Ren2 rat at 200 mg/kg/day after 24 hrs by radioimmunoassay; format: functional, organism-based
Rattus norvegicus [10] = assay: Reduction in albuminuria in STZ-induced Ren2 rat at 400 mg/kg/day after 24 hrs by radioimmunoassay; format: functional, organism-based
[11] = Antifibrotic activity in rat 1097 cells assessed as inhibition of TGF-beta-stimulated [3H]proline incorporation in to collagen at 10 uM; format: functional

CCC#CCOc1cc(/C=C/C(=O)Nc2ccccc2C(=O)O)ccc1OC
inhibition at 100 µM [1]: 100%
inhibition at 30 µM [2]: 90%
Activity [3]: Toxic
Activity [4]: Non-toxic

C#CCCCCOc1cc(/C=C/C(=O)Nc2ccccc2C(=O)O)ccc1OC
inhibition at 100 µM [1]: 100%
inhibition at 30 µM [2]: 95%

CCCCC#CCCOc1cc(/C=C/C(=O)Nc2ccccc2C(=O)O)ccc1OC
Activity 1097 [5]: Active
Activity 1097 [6]: Active

COc1ccc(CCC(=O)Nc2ccccc2C(=O)O)cc1OC
inhibition (Rattus norvegicus [7]): inactive

C#CCOc1cc(/C=C/C(=O)Nc2ccccc2C(=O)O)ccc1OC
inhibition at 100 µM [1]: 90%
inhibition at 30 µM [2]: 60%

COc1cc(/C=C/C(=O)Nc2ccccc2C(=O)O)ccc1OC1CCCC1
inhibition at 30 µM [2]: 100%
Activity [3]: Toxic
Activity [4]: Non-toxic
Activity (Rattus norvegicus [8]): Active

C#CCCCCOc1ccc(/C=C/C(=O)Nc2ccccc2C(=O)O)cc1OC
inhibition at 30 µM [2]: 80%
Activity (Rattus norvegicus [8]): Active

COc1ccc(/C=C/C(=O)Nc2ccccc2)cc1OC
inhibition at 100 µM [1]: 50%

CCC#CCOc1ccc(/C=C/C(=O)Nc2ccccc2C(=O)O)cc1OC
inhibition at 100 µM [1]: 100%
inhibition at 30 µM [2]: 100%
Activity [3]: Toxic
Activity [4]: Non-toxic

CCCCC#CCCOc1ccc(/C=C/C(=O)Nc2ccccc2C(=O)O)cc1OC
Activity 1097 [5]: Active

COc1ccc(/C=C/C(=O)Nc2ccccc2C(=O)O)cc1
inhibition (Rattus norvegicus [7]): inactive

COc1ccc(/C=C/C(=O)Nc2ccccc2C(=O)O)cc1OC [TRANILAST]
inhibition at 100 µM [1]: 70%
inhibition at 30 µM [2]: 40%

C#CCCOc1ccc(/C=C/C(=O)Nc2ccccc2C(=O)O)cc1OC
inhibition at 100 µM [1]: 100%
inhibition at 30 µM [2]: 70%

COc1cc(/C=C/C(=O)Nc2ccccc2C(=O)O)ccc1OC1CCCCCCC1
Activity 1097 [5]: Active
Activity 1097 [6]: Active

C#CCCCOc1ccc(/C=C/C(=O)Nc2ccccc2C(=O)O)cc1OC
inhibition at 100 µM [1]: 100%
inhibition at 30 µM [2]: 75%

CCC#CCCOc1ccc(/C=C/C(=O)Nc2ccccc2C(=O)O)cc1OC
inhibition at 30 µM [2]: 100%
Activity (Rattus norvegicus [8]): Active

COc1cc(/C=C/C(=O)Nc2ccccc2C(=O)O)ccc1O
inhibition at 100 µM [1]: 50%

CC#CCOc1ccc(/C=C/C(=O)Nc2ccccc2C(=O)O)cc1OC
inhibition at 100 µM [1]: 90%
inhibition at 30 µM [2]: 65%

C#CCOc1ccc(/C=C/C(=O)Nc2ccccc2C(=O)O)cc1OC [ASENGEPRAST]
inhibition at 100 µM [1]: 80%
inhibition at 30 µM [2]: 55%
Activity (Rattus norvegicus [9]): Active
Activity (Rattus norvegicus [10]): Active

O=C(/C=C/c1ccccc1)Nc1ccccc1C(=O)O
inhibition (Rattus norvegicus [7]): inactive

COc1ccc(/C=C/C(=O)Nc2ccccc2C(=O)O)cc1O
inhibition at 100 µM [1]: 50%

O=C(/C=C/c1ccc(O)c(O)c1)Nc1ccccc1C(=O)O
inhibition at 100 µM [1]: 90%

COc1cc(/C=C/C(=O)Nc2ccccc2C(=O)O)ccc1OC1CCC1
inhibition at 10 µM [11]: 60%
Activity (Rattus norvegicus [8]): Active

COc1ccc(/C=C/C(=O)Nc2ccccc2C(N)=O)cc1OC
inhibition at 100 µM [1]: 35%

COc1cc(/C=C/C(=O)Nc2ccccc2C(=O)O)ccc1OC1CCCCC1
Activity 1097 [5]: Active
Activity 1097 [6]: Active

C#CCCCOc1cc(/C=C/C(=O)Nc2ccccc2C(=O)O)ccc1OC
inhibition at 30 µM [2]: 80%
Activity (Rattus norvegicus [8]): Active

COc1cc(/C=C/C(=O)Nc2ccccc2C(=O)O)ccc1OC1CCCCCC1
Activity 1097 [5]: Active
Activity 1097 [6]: Active

CCC#CCCOc1cc(/C=C/C(=O)Nc2ccccc2C(=O)O)ccc1OC
inhibition at 100 µM [1]: 100%
inhibition at 30 µM [2]: 100%

CC#CCOc1cc(/C=C/C(=O)Nc2ccccc2C(=O)O)ccc1OC
inhibition at 100 µM [1]: 80%
inhibition at 30 µM [2]: 75%

C#CCCOc1cc(/C=C/C(=O)Nc2ccccc2C(=O)O)ccc1OC
inhibition at 30 µM [2]: 65%
Activity (Rattus norvegicus [8]): Active

COc1cccc(/C=C/C(=O)Nc2ccccc2C(=O)O)c1
inhibition at 100 µM [1]: 40%
